From patent publication US20230322724A1, “HETEROCYCLIC COMPOUNDS AS CBP/EP300 BROMODOMAIN INHIBITORS” (AURIGENE ONCOLOGY LIMITED, priority 2020, published 2023) come the findings set out here.

T1 sequence (Q92793 1085-1192 limits assumed): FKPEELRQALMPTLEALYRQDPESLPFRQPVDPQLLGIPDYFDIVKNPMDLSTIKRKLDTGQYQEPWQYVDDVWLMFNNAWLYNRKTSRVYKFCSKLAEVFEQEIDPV

One assay concerns the target T1, recombinant CREBBP bromodomain (Homo sapiens, UniProt Q92793).
T1 construct: recombinant CREBBP bromodomain obtained from BPS Bioscience, USA; purchased BPS Bioscience, USA
Briefly: CBP TR-FRET displacement assay. The format is binding. The note with it: compound at 10 μM. How it is done: The potency of compounds to inhibit CREBBP enzyme was tested in a TR-FRET displacement assay using recombinant CREBBP bromodomain obtained from BPS Bioscience, USA. The assay buffer was 50 mM HEPES (pH 7.5), 50 mM NaCl, 0.008% Brij 35, 0.01% BSA, 1 mM TCEP. 50 nM of CREBBP & 500 nM of Biotinylated ligand was incubated at room temperature for 30 minutes, the reaction was initiated by adding pre-incubated enzyme ligand mixture to the test compounds. After 60 min incubation, the reaction was stopped by the addition of stop mix containing 1 nM of LANCE Europium-anti-6xHis antibody (Perkin Elmer, USA) and 40 nM of Sure Light Allophycocyanin-Streptavidin (Perkin Elmer, USA). Fluorescence emission of the samples at 665 and 615 nm were measured at an excitation of 340 nm and their ratio was plotted against the compound concentrations to generate dose-response curve. The percent inhibition of the test compounds is calculated using the ratio of enzyme activity controls.
elected compounds of the present invention were screened in the above-mentioned assay procedures and IC50 values were determined by fitting the dose-response data to sigmoidal curve fitting equation using Graph pad prism software V7.
For the compound `CNC(=O)c1ccc(-c2cc3c(cc2C(F)F)N(c2cc(OC)cc4c2cc(C)c(=O)n4C)CCC3)cn1` [Example 192, 5-(7-(Difluoromethyl)-7′-methoxy-1′,3′-dimethyl-2′-oxo-1′,2′,3,4-tetrahydro-2H-[1,5′-biquinolin]-6-yl)-N-methylpicolinamide], the inhibition at 10 µM turned out to be 47%.
Same read-out and setting: as for `COc1cc(N2CCN(C)c3cc(N4CCCCC4=O)ncc32)c2cc(C)c(=O)n(C)c2c1` [Example 126], the figure is 46%; as for `CCc1cc2c(N3CCN(C)c4cc(-c5cnn(C)c5)c(C#N)cc43)cccc2[nH]c1=O` [Example 50], 90%; as for `Cc1cc2c(N3CCN(C4CCOCC4)c4ccccc43)cccc2n(C)c1=O` [Example 78, 1,3-Dimethyl-5-(4-(tetrahydro-2H-pyran-4-yl)-3,4-dihydroquinoxalin-1(2H)-yl)quinolin-2(1H)-one], 25%.

Still in this assay, the particulars now being: dose-response, read-out: IC50 (group A, B, C).
For `Cc1cc2c(N3CCN(C)c4cc(-c5cnn(C)c5)[n+]([O-])cc43)cc(N3CCOCC3)cc2n(C)c1=O` [Example 160, 4-(1,3-Dimethyl-7-morpholino-2-oxo-1,2-dihydroquinolin-5-yl)-1-methyl-7-(1-methyl-1H-pyrazol-4-yl)-1,2,3,4-tetrahydropyrido[3,4-b]pyrazine 6-oxide], the IC50 was above 10 nM.
The same measure, in the same setting: for `Cc1cc2c(N3CCCc4cc(-c5cnn(C)c5)c(C(F)F)cc43)nc(N3CCC(C)(N)CC3)cc2n(C)c1=O` [Example 222] the value was below 50 nM.
Still for that read-out and setting: for `COc1cc(N2CCN(C)c3cc(-c4ccncc4)c(C#N)cc32)c2cc(C)c(=O)n(C)c2c1` [Example 21] the value was below 50 nM.
Still for that read-out and setting: for `Cc1cc2c(N3CCN(C)c4ccc(S(N)(=O)=O)cc43)cc(OC(F)F)cc2n(C)c1=O` [Example 97] the value was above 10 nM; for `Cc1cc2c(N3CCN(C)c4cc(-c5cnn(C)c5)c(C#N)cc43)cc(N3CCOCC3)cc2n(C)c1=O` [Example 47], below 50 nM; for `CNC(=O)N1CCN(c2cccc3c2cc(C)c(=O)n3C)c2ccc(-c3cnn(C)c3)cc21` [Example 75, 4-(1,3-Dimethyl-2-oxo-1,2-dihydroquinolin-5-yl)-N-methyl-7-(1-methyl-1H-pyrazol-4-yl)-3,4-dihydroquinoxaline-1(2H)-carboxamide], above 10 nM.
Consider `Cc1cc2c(N3CCN(C)c4ccc(C#N)cc43)cccc2[nH]c1=O` [Example 115, 1-Methyl-4-(3-methyl-2-oxo-1,2-dihydroquinolin-5-yl)-1,2,3,4-tetrahydroquinoxaline-6-carbonitrile], for which the half-maximal inhibitory concentration (IC50) was below 50 nM.
Same read-out and setting: for `COc1cc(N2CCN(C)c3cc(C4CC4)c(S(=O)(=O)NC(C)=O)cc32)c2cc(C)c(=O)n(C)c2c1` [Example 109] the value was below 50 nM.
`COc1cc(N2CCN(C)c3ccc(S(=O)(=O)N(C)C)cc32)c2cc(C)c(=O)n(C)c2c1` [Example 93, 4-(7-Methoxy-1,3-dimethyl-2-oxo-1,2-dihydroquinolin-5-yl)-N,N,1-trimethyl-1,2,3,4-tetrahydroquinoxaline-6-sulfonamide]: the IC50 fell in the range of 51 to 100 nM.
Still for that read-out and setting: for `Cc1cc2c(N3CCCc4cc(-c5cnn(C)c5)c(O)cc43)nc(C3CCOCC3)cc2n(C)c1=O` [Example 244, 5-(7-Hydroxy-6-(1-methyl-1H-pyrazol-4-yl)-3,4-dihydroquinolin-1(2H)-yl)-1,3-dimethyl-7-(tetrahydro-2H-pyran-4-yl)-1,6-naphthyridin-2(1H)-one] the value was below 50 nM; for `Cc1cc2c(N3CCN(C)c4cc(-c5cnn(C)c5)ncc43)cc(O)cc2n(C)c1=O` [Example 145, 7-Hydroxy-1,3-dimethyl-5-(1-methyl-7-(1-methyl-1H-pyrazol-4-yl)-2,3-dihydropyrido[3,4-b]pyrazin-4(1H)-yl)quinolin-2(1H)-one], 51 to 100 nM; for `COc1cc(N2CCN(C)c3ccc(-c4nn[nH]n4)cc32)c2cc(C)c(=O)n(C)c2c1` [Example 84, 7-Methoxy-1,3-dimethyl-5-(4-methyl-7-(2H-tetrazol-5-yl)-3,4-dihydroquinoxalin-1(2H)-yl)quinolin-2(1H)-one], below 50 nM.
Same read-out and setting: as for `CC(=O)N1CCN(c2cc3c(cc2C(F)F)N(c2cc(N4CCOCC4)cc4c2cc(C)c(=O)n4C)CCC3)CC1` [Example 174, 6-(4-Acetylpiperazin-1-yl)-7-(difluoromethyl)-1′,3′-dimethyl-7′-morpholino-3,4-dihydro-2H-[1,5′-biquinolin]-2′(1′H)-one], the figure is 51 to 100 nM.
Still for that read-out and setting: as for `CNC(=O)C1CCN(c2ccc3c(c2)CCCN3c2cc(OC)cc3c2cc(C)c(=O)n3C)CC1` [Example 187], the figure is above 10 nM.
On to `COc1cc(N2CCN(C)c3cc(C(F)(F)F)ncc32)c2cc(C)c(=O)n(C)c2c1` [Example 124], for which the IC50 was in the range of 51 to 100 nM.
Same read-out and setting: for `Cc1cc2c(N3CCCc4cc(-c5cnn(C)c5)ncc43)cc(N3C[C@H]4C[C@@H]3CO4)cc2n(C)c1=O` [Example 168] the value was below 50 nM; for `Cc1cc2c(N3CCN(C)c4cc(-c5cnn(C)c5)c(C#N)cc43)cc(OCc3ncco3)cc2n(C)c1=O` [Example 41], below 50 nM.
`Cc1cc2c(N3CCN(C)c4cc(S(=O)(=O)C(C)C)ncc43)cc(N3CCOCC3)cc2n(C)c1=O` [Example 141]: the IC50 was in the range of 51 to 100 nM.
Still for that read-out and setting: for `Cc1cc2c(N3CCCc4cc(C5CCCO5)c(C(F)F)cc43)nc(N3CC[C@@H](O)C3)cc2n(C)c1=O` (some centres unmarked) [Example 227] the value was 51 to 100 nM.
Still for that read-out and setting: as for `Cc1cc2c(N3CCN(C)c4cc(-c5cnn(C)c5)ncc43)cc(C3CCOC3)cc2n(C)c1=O` (centres unmarked) [Example 142], the figure is below 50 nM; as for `COc1cc(N2CCN(C)c3cc(N4CCC(NC(C)=O)CC4)c(C#N)cc32)c2cc(C)c(=O)n(C)c2c1` [Example 56], below 50 nM; as for `Cc1cc2c(N3CCN(C)c4cc(-c5cnn(C)c5)ncc43)cc(C3CCOCC3)cc2n(C)c1=O` [Example 143], 51 to 100 nM.
Same read-out and setting: for `COc1cc2c(cc1-c1cnn(C)c1)CCCN2c1nc(N2CCC(O)C2)cc2c1cc(C)c(=O)n2C` (centres unmarked) [Example 232] the value was 51 to 100 nM; for `COc1cc(N2CCCc3ccc(C#N)cc32)c2cc(C)c(=O)n(C)c2c1` [Example 184], above 10 nM.
As for `COc1cc(N2CCN(C)c3cc(C4=CCCC4)c(S(=O)(=O)NC(C)=O)cc32)c2cc(C)c(=O)n(C)c2c1` [Example 110], the IC50 was below 50 nM.
Take `Cc1cc2c(N3CCCc4cc(N5CC(C)NC(C)C5)c(C(F)F)cc43)nc(C3CCOCC3)cc2n(C)c1=O` (centres unmarked) [Example 236]: the IC50 is below 50 nM.
Still for that read-out and setting: for `Cc1cc2c(N3CCN(C)c4nc(-c5cnn(C)c5)ncc43)cc(N3CCOCC3)cc2n(C)c1=O` [Example 76, 1,3-Dimethyl-5-(8-methyl-2-(1-methyl-1H-pyrazol-4-yl)-7,8-dihydropteridin-5(6H)-yl)-7-morpholinoquinolin-2(1H)-one] the value was below 50 nM; for `Cc1cc2c(N3CCN(C)c4cc(C5=CCN(C)CC5)ccc43)cccc2n(C)c1=O` [Example 44], above 10 nM; for `Cc1cc2c(N3CCN(C)c4cc(-c5ccsc5)ncc43)cc(N3CCOCC3)cc2n(C)c1=O` [Example 140], below 50 nM.
Still for that read-out and setting: for `Cc1cc2c(N3CCN(C)c4cc(-c5cnn(C)c5)ncc43)nc(N3C4CCC3COC4)cc2n(C)c1=O` [Example 221] the value was above 10 nM.
The same measure, in the same setting: as for `COC(=O)c1cc2c(cc1-c1cnn(C)c1)N(C)CCN2c1cc(OC)cc2c1cc(C)c(=O)n2C` [Example 34], the figure is below 50 nM; as for `COc1cc(N2CCN(C)c3cc(-c4cnn(C)c4)c(F)cc32)c2cc(C)c(=O)n(C)c2c1` [Example 30], below 50 nM; as for `COc1cc(N2CCc3c(c(-c4cnn(C)c4)nn3C)C2)c2cc(C)c(=O)n(C)c2c1` [Example 191], above 10 nM.
Consider `COc1cc(N2CCCc3ccc(C(F)F)cc32)c2cc(C)c(=O)n(C)c2c1` [Example 175], for which the IC50 is above 10 nM.

Another assay concerns the target T2, recombinant BRD4 FL bromodomain (Homo sapiens, UniProt O60885).
T2 construct: fused on or other part: 6xHis tag, inferred from detection with Mab ANTI 6HIS-XL665
Briefly: BRD4 FL TR-FRET displacement assay. The class given is binding. As to conditions: BRD4 FL, compound at 10 μM; read-out: % Inhibition (10 μM). On the procedure:
The potency of compounds to inhibit BRD4 FL enzyme was tested in a TR-FRET displacement assay using recombinant BRD4 FL bromodomain obtained In-house. The assay buffer was 50 mM HEPES (pH 7.5), 50 mM NaCl, 500 μM CHAPS. 10 nM of BRD4 FL & 300 nM of Biotinylated Acetyl histone H4 (Lys 5, 8, 12, 16) (Millipore, USA) was incubated at room temperature for 30 minutes, the reaction was initiated by adding the pre-incubated enzyme ligand mixture to the test compounds. After 30 min incubation, the reaction was stopped by the addition of stop mix containing 1 nM of Europium Streptavidin cryptate (Cisbio, USA) and 5 nM of Mab ANTI 6HIS-XL665 (Cisbio, USA) dilutes in assay buffer containing 2.4M Potassium Fluoride. Fluorescence emission of the samples at 665 and 615 nm were measured at an excitation of 340 nm and their ratio was plotted against the compound concentrations to generate dose-response curve. The percent inhibition of the test compounds is calculated using the ratio of enzyme activity controls.
Selected compounds of the present invention were screened in the above-mentioned assay procedures and IC50 values were determined by fitting the dose-response data to sigmoidal curve fitting equation using Graph pad prism software V7.
As to `Cc1cc2c(N3CCN(C)c4cc(N5CCCCC5)ncc43)cc(N3CCOCC3)cc2n(C)c1=O` [Example 139], the inhibition at 10 µM amounted to 43%.
Still for that read-out and setting: for `Cc1cc2c(N3CCN(C)c4cc(C5CCOC5)ncc43)cc(N3CCOCC3)cc2n(C)c1=O` (centres unmarked) [Example 137] the value was 26%; for `Cc1cc2c(N3CCCc4cc(-c5cnn(C)c5)c(C(F)F)cc43)nc(-n3ccnc3)cc2n(C)c1=O` [Example 204], 12%.
